SMILES: CNc1nc(C)nc(OC)n1
- solubility (mole fraction) (in DMF, 278.15 K): 0.199
- solubility (mole fraction) (in DMF, 283.15 K): 0.221
- solubility (mole fraction) (in DMF, 288.15 K): 0.245
- solubility (mole fraction) (in DMF, 293.15 K): 0.269
- solubility (mole fraction) (in DMF, 298.15 K): 0.298
- solubility (mole fraction) (in DMF, 303.15 K): 0.324
- solubility (mole fraction) (in DMF, 308.15 K): 0.357
- solubility (mole fraction) (in DMF, 313.15 K): 0.386
- solubility (mole fraction) (in DMF, 318.15 K): 0.416
- solubility (mole fraction) (in DMF, 323.15 K): 0.456
- solubility (mole fraction) (in ethanol, 278.15 K): 0.0496
- solubility (mole fraction) (in ethanol, 283.15 K): 0.057
- solubility (mole fraction) (in ethanol, 288.15 K): 0.0655
- solubility (mole fraction) (in ethanol, 293.15 K): 0.0737
- solubility (mole fraction) (in ethanol, 298.15 K): 0.0818
- solubility (mole fraction) (in ethanol, 303.15 K): 0.0914
- solubility (mole fraction) (in ethanol, 308.15 K): 0.101
- solubility (mole fraction) (in ethanol, 313.15 K): 0.111
- solubility (mole fraction) (in ethanol, 318.15 K): 0.123
- solubility (mole fraction) (in ethanol, 323.15 K): 0.136
- solubility (mole fraction) (in ethylene glycol, 278.15 K): 0.0208
- solubility (mole fraction) (in ethylene glycol, 283.15 K): 0.0236
- solubility (mole fraction) (in ethylene glycol, 288.15 K): 0.0273
- solubility (mole fraction) (in ethylene glycol, 293.15 K): 0.0309
- solubility (mole fraction) (in ethylene glycol, 298.15 K): 0.0349
- solubility (mole fraction) (in ethylene glycol, 303.15 K): 0.039
- solubility (mole fraction) (in ethylene glycol, 308.15 K): 0.0437
- solubility (mole fraction) (in ethylene glycol, 313.15 K): 0.0483
- solubility (mole fraction) (in ethylene glycol, 318.15 K): 0.0534
- solubility (mole fraction) (in ethylene glycol, 323.15 K): 0.0597
- solubility (mole fraction) (in methanol, 278.15 K): 0.0666
- solubility (mole fraction) (in methanol, 283.15 K): 0.0766
- solubility (mole fraction) (in methanol, 288.15 K): 0.0874
- solubility (mole fraction) (in methanol, 293.15 K): 0.0983
- solubility (mole fraction) (in methanol, 298.15 K): 0.11
- solubility (mole fraction) (in methanol, 303.15 K): 0.123
- solubility (mole fraction) (in methanol, 308.15 K): 0.138
- solubility (mole fraction) (in methanol, 313.15 K): 0.152
- solubility (mole fraction) (in methanol, 318.15 K): 0.168
- solubility (mole fraction) (in methanol, 323.15 K): 0.185
- solubility (mole fraction) (in water, 278.15 K): 2.58e-06
- solubility (mole fraction) (in water, 283.15 K): 3.05e-06
- solubility (mole fraction) (in water, 288.15 K): 3.53e-06
- solubility (mole fraction) (in water, 293.15 K): 4.12e-06
- solubility (mole fraction) (in water, 298.15 K): 4.73e-06
- solubility (mole fraction) (in water, 303.15 K): 5.33e-06
- solubility (mole fraction) (in water, 308.15 K): 5.99e-06
- solubility (mole fraction) (in water, 313.15 K): 6.71e-06
- solubility (mole fraction) (in water, 318.15 K): 7.57e-06
- solubility (mole fraction) (in water, 323.15 K): 8.49e-06
